Results on 16 compounds are retold here after patent US10308642B2, “Anti-hepatitis B virus agent” (FUJIFILM Toyama Chemical Co., Ltd., priority 2015, dated 2019).

Structures are written as SMILES. Where two headings read alike, the source gives them in different places.

The subject of experiment [1] is HBV. Put plainly: Anti-HBV assay in HepG2.2.15 cells (HBV DNA by real-time PCR, HBsAg by chemiluminescent enzyme immunoassay in culture supernatant). In kind it is cell-based. The settings on record: Hepatitis B virus, 144 h, 6 days treatment. The procedure:
The anti-HBV activity of compounds 1 to 16 was evaluated as follows by using HepG2.2.15 cells (Proc. Natl. Acad. Sci. USA, 84, 1005-1009, 1987), which are obtained by introducing the HBV genome into hepatoblastoma cell line, HepG2, and persistently produce the virus.
The following was used as a medium: DMEM/F-12,GlutaMAX(manufactured by Invitrogen)+5 μg/mL insulin (manufactured by Wako)+1% penicillin/streptomycin(manufactured by Sigma)+10 mmol/L HEPES(manufactured by Sigma)+50 μmol/L hydrocortisone(manufactured by Sigma)+10% FBS
A mixture of each test compound with dimethyl sulfoxide (DMSO) was added to the medium to obtain a final concentration of DMSO of 1% (v/v), and thus, test solutions containing the test compound in various concentrations were prepared. In addition, a test solution obtained by adding DMSO alone to the medium to obtain a final concentration of 1% (v/v) was prepared as a control without drug.
(1) The HepG2.2.15 cells were suspended in the medium and prepared a cell suspension at 1.5×10^5 cells/mL. The suspension was seeded in a 96-well microtiter plate (100 μL/well) and the plate was incubated in a 5% CO2 incubator at 37° C. for 1 day.
(2) After removing the culture supernatant, the cells were washed twice with PBS(−) (100 μL/well) and then once with the medium (100 μL/well).
(3) Each test solution was added to the plate (100 μL/well), and the plate was incubated in a 5% CO2 incubator at 37° C. for 3 days.
(4) After removing the culture supernatant, the test solution was added to the plate again (100 μL/well) and the plate was incubated in a 5% CO2 incubator at 37° C. for 3 days.
(5) The culture supernatant was collected and treated with a mixture of Buffer AL (manufactured by QIAGEN) and Proteinase K (manufactured by Invitrogen). The amount of HBV DNA in the solution was quantified by real-time PCR. In addition, the amount of HBsAg (hepatitis B surface antigen) in the culture supernatant was quantified by chemiluminescent enzyme immunoassay using a Lumipulse HBsAg-HQ (manufactured by Fujirebio Inc.). The relative viral load (%) of a well with the compound to a well without the compound was calculated. An IC50 of each compound was calculated using the FORECAST function (linear regression method) of Microsoft Excel 2007 by plotting the logarithm of the concentration against the relative viral load as a real number.
Background: Quantitative PCR measures a nucleic acid by following its amplification.

Experiment [2] deals with HBV. Put plainly: Anti-HBV assay in PXB-cells (fresh human hepatocytes from PXB mouse infected with HBV genotype AeUS). In kind it is cell-based, hepatitis B virus (HBV). The settings on record: 10 μmol/L. The procedure:
The anti-HBV activity of compound 8 was evaluated as follows by using fresh human hepatocyte (The PXB-cells were produced by PhenixBio Co., Ltd.) derived from a PXB mouse (a chimeric mouse with human hepatocyte).
The following was used as a medium:
500 mL DMEM (manufactured by Sigma)+0.25 μg/mL insulin (manufactured by Wako)+1% penicillin/streptomycin. (manufactured by Sigma)+20 mmol/L HEPES (manufactured by Sigma)+15 μg/mL L-proline (manufactured by Sigma)+50 nmol/L dexamethasone (manufactured by Sigma)+5 ng/mL EGF (manufactured by Peprotech)+0.1 mmol/L ascorbic acid 2-phosphate (manufactured by Wako)+10% FBS+2% DMSO
Compound 8 was further added to the medium to prepare a 10 μmol/L test solution.
(1) The PXB-cells seeded at a 2.1×10^5 cells/cm^2 in a 48-well microliter plate were incubated in a 5% CO2 incubator at 37° C. for 5 days.
(2) HBV derived from PXB mouse serum (genotype AeUS) was added to the medium supplemented with 4% PEG-8000. The PXB cells were infected with this solution at about 10 copies/cell (250 μL/well) and the plate was incubated in a 5% CO2 incubator at 37° C. for 1 day.
(3) After the culture supernatant had been removed, the cells were washed three times with DMEM supplemented with 10% FBS and 1% penicillin/streptomycin. The medium was added to the plate (250 μL/well) and the plate was incubated in a 5% CO2 incubator at 37° C. for 1 day.
(4) After removing the culture supernatant, the cells were washed three times with DMEM supplemented with 10% FBS and 1% penicillin/streptomycin. […]
(11) The collected culture supernatant on day 32 post infection was purified using a QIAamp DNA Blood Mini Kit (manufactured by QIAGEN) and the amount of HVB DNA was quantified by real-time PCR. In addition, the amount of HBsAg (hepatitis B surface antigen) in the culture supernatant was quantified by chemiluminescent enzyme immunoassay using a Lumipulse HBsAg-HQ (manufactured by Fujirebio Inc.). The relative viral load (%) of a well with the compound to a well without the compound was calculated.

[3] abbreviates: HBV DNA in culture supernatant, real-time PCR, read-out: IC50 (μM) HBV-DNA.
The mark [4] stands for this setting: HBsAg in culture supernatant, chemiluminescent enzyme immunoassay, read-out: IC50 (μM) HBsAg.
The mark [5] stands for this setting: culture supernatant on day 32 post infection, relative to well without compound.

Turning to `O=C(O)c1cn(-c2ccc(F)cc2)c(-c2ccc(N3CCCC3)cc2)cc1=O` [Compound 1], the IC50 was 0.051 µM with HBV [1] (setting [3]) and 1.1 µM in the experiment with HBV [1] (setting [4]).

As for `O=C(O)c1cn(-c2ccc(F)cc2)c(-c2sccc2-c2ccc([N+](=O)[O-])cc2)cc1=O` [Compound 2], the results for the IC50 with HBV [1] (setting [3]) and with HBV [1] (setting [4]) were 0.16 µM and 0.79 µM, respectively.

`CN(C)c1ccc(-c2cc(=O)c(C(=O)O)cn2-c2cccc(F)c2)cc1` [Compound 3]: the IC50 was 0.86 µM with HBV [1] (setting [3]) and 5.7 µM in the experiment with HBV [1] (setting [4]).

As for `O=C(O)c1cn(-c2ccc(F)cc2F)c(-c2ccc(N3CCCC3)cc2)cc1=O` [Compound 4], the IC50 with HBV [1] (setting [3]) turned out to be 0.088 µM; in the experiment on HBV [1] (setting [4]), 2.1 µM.

Take `COc1ccc(-n2cc(C(=O)O)c(=O)cc2-c2ccc(N(C)C)cc2)cc1` [Compound 5]: the IC50 in the experiment on HBV [1] (setting [3]) worked out at 0.33 µM; in the experiment on HBV [1] (setting [4]), 4.6 µM.

In the case of `O=C(O)c1cn(-c2ccc(F)cc2)c(-c2cc3ccccc3s2)cc1=O` [Compound 6], the IC50 with HBV [1] (setting [3]) is 1.1 µM; in the experiment on HBV [1] (setting [4]), 5.8 µM.

For the compound `CN(C)c1ccc(-c2cc(=O)c(C(=O)O)cn2-c2ccccc2F)cc1` [Compound 7], the IC50 with HBV [1] (setting [3]) came out at 1.1 µM; in the experiment with HBV [1] (setting [4]), 4.6 µM.

In the case of `CN(C)c1ccc(-c2cc(=O)c(C(=O)O)cn2-c2ccc3c(c2)OCO3)cc1` [Compound 8], in the experiment on HBV [2] (setting [5]), the “relative viral load with respect to the amount of HBV DNA” value was 16% and the “relative viral load with respect to the amount of HBsAg” value is given as 29%. The anti-HBV activity result in the experiment on HBV [2] (statement in words) was “excellent anti-HBV activity”. In addition, the IC50 in the experiment with HBV [1] (setting [3]) was 0.25 µM. In addition, in the experiment with HBV [1] (setting [4]), the IC50 is 1.2 µM.

For the compound `O=C(O)c1cn(-c2ccc(F)cc2F)c(-c2cc3ccccc3s2)cc1=O` [Compound 9], the IC50 in the experiment on HBV [1] (setting [3]) was 0.23 µM; in the experiment with HBV [1] (setting [4]), 3.6 µM.

With `CN(C)c1ccc(-c2cc(=O)c(C(=O)O)cn2-c2ccccc2O)cc1` [Compound 10], the IC50 with HBV [1] (setting [3]) came to 2.1 µM; with HBV [1] (setting [4]), 6.9 µM.

Take `Cc1cc(-n2cc(C(=O)O)c(=O)cc2-c2ccc(N(C)C)cc2)ccc1O` [Compound 11]: the IC50 in the experiment with HBV [1] (setting [3]) is 0.8 µM; in the experiment on HBV [1] (setting [4]), 3.7 µM.

For the compound `COc1ccc(-n2cc(C(=O)O)c(=O)cc2-c2ccc(N(C)C)cc2)c(F)c1` [Compound 12], the IC50 in the experiment on HBV [1] (setting [3]) was 1.4 µM; with HBV [1] (setting [4]), 4.9 µM.

As for `Cc1cc(O)ccc1-n1cc(C(=O)O)c(=O)cc1C1CCC(Br)C(Br)C1` (centres unmarked) [Compound 13], the IC50 came out at 0.49 µM with HBV [1] (setting [3]) and 1.8 µM in the experiment with HBV [1] (setting [4]).

Take `O=C(O)c1cn(-c2ccc(F)cc2)c(-c2ccc(-c3cccs3)cc2)cc1=O` [Compound 14]: the IC50 with HBV [1] (setting [3]) stood at 0.91 µM; in the experiment on HBV [1] (setting [4]), 4.2 µM.

Turning to `CN(C)c1ccc(-c2cc(=O)c(C(=O)O)cn2-c2cc(Cl)c(O)c(Cl)c2)cc1` [Compound 15], the IC50 with HBV [1] (setting [3]) amounted to 4.5 µM; in the experiment on HBV [1] (setting [4]), 11 µM.

On to `CNc1ccc(-c2cc(=O)c(C(=O)O)cn2-c2ccc(F)cc2)cc1` [Compound 16], for which the IC50 with HBV [1] (setting [3]) stood at 7.9 µM; in the experiment with HBV [1] (setting [4]), 35 µM.

By IC50 is commonly meant the concentration that gives 50% inhibition.
